PubChem BioAssay AID449762 (Southern Research Specialized Biocontainment Screening …, 2010)
Records with an inconclusive call do not appear.

System: M. tuberculosis H37Rv growth inhibition, 7H9 media
Experiment: M. tuberculosis growth inhibition, HTS (AID 449762);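 note: bacterial growth assessed after seven days of incubation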
Conditions: for IC90: measured here: IC90 growth inhibition

Structure (SMILES) | IC50 [µM] | IC90 [µM]
Cn1cnc(Sc2ncnc3nc[nH]c23)c1[N+](=O)[O-] | 9.85 | 17
Cc1ccc(C)c(NC(=O)c2cc(-c3ccccc3)nn2-c2ccccc2)c1 | 34.9 | 59.6
Clc1ccc(C(Cn2ccnc2)OCc2csc3c(Cl)cccc23)c(Cl)c1 (stereo not drawn) | 15.8 | 24.8
COc1ccc(-c2cc(C3CCN(Cc4cccc(C(F)(F)F)c4)CC3)[nH]n2)cc1 | 10.6 | 15.9
CC1(C)CC(NC(=O)c2ccc(Cl)c(S(=O)(=O)N(Cc3ccccc3)c3ccccc3)c2)CC(C)(C)N1 | 24.5 | 27.9
CC1CCCN(Cc2c(O)ccc3c(=O)c(-c4nc5ccccc5s4)c(N)oc23)C1 (stereo not drawn) | 9.7 | 12.7
CCOC(=O)CSc1ncnc2c1sc1nc(N3CCOCC3)c3c(c12)CCCC3 | 23.3 | 26.2
O=S(=O)(c1ccc(Cl)cc1)c1snnc1-c1ccccc1 | 6.27 | 51.8
O=C(CCl)Nc1cn(-c2ccccc2)nc1-c1ccccc1 | < 0.2 | 1.15
C=C[C@]1(C)C[C@@H](OC(=O)CSCCN(CC)CC)[C@]2(C)C(C)CC[C@]3(CCC(=O)[C@H]32)[C@@H](C)[C@@H]1O (stereo partly drawn) | 4.03 | 7.7
COC(=O)CSc1ncnc2c1cnn2-c1ccc(C)cc1C | 3.82 | 7.95
CN1C(=S)SC(N(O)C(=O)Nc2ccc(Cl)c(Cl)c2)C1(C)C (stereo not drawn) | 22.8 | 25.6
CCCCn1c(O)c(/C=C2/C=CC=N2)c(=O)[nH]c1=O | 6.55 | 17.1
Oc1ccccc1Nc1nc(NCc2ccccc2)c2ccccc2n1 | 16.1 | 21.1
CCN(CC)CCCNc1nc2cc(OC)c(OC)cc2c2nc(-c3ccccc3)nn12 | 4.71 | 6
CSc1nc2nc3c(c(=O)n2[nH]1)CCCC3 | 20.5 | > 100
Cc1cccc(N(C(=O)c2nsc(Cl)c2Cl)C(C(=O)NC2CCCC2)c2ccc(O)cc2)c1C (stereo not drawn) | 21.7 | 28.2

Structure (SMILES) | IC50 [µM] | IC90 [µM]
O=C1N/C(=N\N=C\c2ccccn2)SC1Cc1cccc(SC(F)F)c1 (stereo not drawn) | 73.1 | > 100
c1ccc(C2[C@H]3CN(CC4CCCCC4)[C@H](c4ccccc4)C34CC2(c2cccnc2)C4)cc1 (stereo partly drawn) | 31.4 | 41.5
CN1C(=O)/C(=C/c2cccc(Cl)c2)Sc2ccc(C(=O)N3CCCC3)cc21 | 17.1 | 31
Cc1ccc(C2CC(c3cccs3)=NN2C(=O)CCl)cc1 (stereo not drawn) | 0.39 | 1.39
Cn1nnnc1Sc1ncnc2scc(-c3cc4ccccc4o3)c12 | 0.78 | 7
CCOC(=O)c1c(CC(C)C)csc1NC(=O)CCl | < 0.2 | 7.5
CN(C)c1ccc(O)c2c1CC1CC3[C@@H](N(C)C)C(=O)C(C(N)=O)C(=O)[C@]3(O)C(=O)C1C2=O (stereo partly drawn) | 1.27 | 3.62
CCOC(=O)c1c(NC(=O)CCl)sc(CN(C)C)c1-c1ccccc1 | 0.92 | 4.68
O=C(Nc1nnc(-c2ccccc2)o1)c1cc(-c2cccs2)nc2ccccc12 | 0.89 | 2.25
O=C(CCc1c[nH]c2ccccc12)N1CCN(S(=O)(=O)c2ccccc2)CC1 | 94.3 | > 100
CCc1cc(OCCCCNCc2ccccc2)ccc1Cl | 26.3 | 30.4
C(=N\Nc1ncnc2sc3c(c12)CCC3)/c1cccs1 | 5.84 | 16.8
COC(=O)Cn1nc(-c2ccccc2)c2cc(Cl)ccc21 | 8.72 | 51.7
Cc1nc(NCCc2ccccc2)c2oc3ccccc3c2n1 | 6.49 | 14.2
COc1cc(N)c(Cl)cc1C(=O)N[C@H]1CCN(CCCOc2ccc(F)cc2)C[C@H]1OC | 43.8 | 55.2
COCCOC(=O)c1ccc(NC(=O)COc2ccc([N+](=O)[O-])cc2)cc1 | 83 | > 100
CO[C@@]12[C@H](COC(N)=O)C3=C(C(=O)C(C)=C(N)C3=O)N1C[C@@H]1N[C@@H]12 | 39.6 | 69.5
